The species named for data set [1] is Rattus norvegicus. The data set is described as follows: Antiarthritic activity in rat assessed as inhibition of adjuent-induced arthritic pain. The class given is functional.
Another data set deals with Cynomolgus monkey. The data set is described as follows: Half life in cynomolgus monkey. Format: ADME, organism-based, Macaca fascicularis. The note with it: in vivo.
Data set [2] concerns Rattus norvegicus. Description: Antiinflammatory activity in rat air pouch model assessed as inhibition of carrageenan-induced paw edema. The class given is functional. A general note: The carrageenan paw model is a standard test of acute inflammation.
For data set [3], the species on record is Rattus norvegicus. Description: Antiinflammatory activity in rat air pouch model assessed as inhibition of carrageenan-induced inflammatory hyperalgesia. Format: functional.
The species named for a further data set is Homo sapiens. Description: (§1) Half life in human. The class given is ADME, organism-based. Particulars: in vivo.
In a further data set the test system is Liver microsomes. Description: Metabolic stability in human liver microsomes assessed as compound remaining. The class given is ADME, Microsome. (In general: Liver microsomes are a subcellular fraction often used to study metabolism.)
The species named for data set [4] is Rattus norvegicus. Description: Antiinflammatory activity in rat air pouch model assessed as inhibition of carrageenan-induced PGE2 production. Format: functional.
Data set [5] has as its target T1, Prostaglandin G/H synthase 2 (Homo sapiens, UniProt P35354).
T1 sequence (P35354 whole entry): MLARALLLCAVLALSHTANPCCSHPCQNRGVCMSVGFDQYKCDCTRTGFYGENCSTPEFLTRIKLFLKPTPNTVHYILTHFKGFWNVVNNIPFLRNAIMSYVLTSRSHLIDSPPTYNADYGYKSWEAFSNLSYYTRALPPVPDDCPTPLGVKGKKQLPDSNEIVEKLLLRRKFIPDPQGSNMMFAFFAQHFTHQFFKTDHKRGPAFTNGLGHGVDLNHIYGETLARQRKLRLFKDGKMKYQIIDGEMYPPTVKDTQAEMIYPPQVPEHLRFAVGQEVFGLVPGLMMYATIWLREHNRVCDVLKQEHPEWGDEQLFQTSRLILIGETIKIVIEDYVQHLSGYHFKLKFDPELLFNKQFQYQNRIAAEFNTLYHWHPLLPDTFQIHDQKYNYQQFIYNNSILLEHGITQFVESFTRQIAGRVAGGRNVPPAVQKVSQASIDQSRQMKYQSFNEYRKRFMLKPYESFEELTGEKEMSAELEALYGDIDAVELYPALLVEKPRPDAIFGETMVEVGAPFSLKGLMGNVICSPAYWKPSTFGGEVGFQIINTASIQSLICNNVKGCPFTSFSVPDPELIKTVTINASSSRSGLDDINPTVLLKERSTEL

For data set [6], the species on record is Rattus norvegicus. Description: animal or person. Particulars: read-out: INH.
In data set [7] the target is Prostaglandin G/H synthase 1 (Homo sapiens, UniProt P23219).
The species named for data set [8] is Rattus norvegicus. Description: animal or person. The note with it: read-out: INH. The source holds these as a separate data set.
Data set [9] in a line: as §1. Format: ADME, organism-based. Particulars: in vivo.
Data set [10] in a line: Half life in dog. Format: ADME, organism-based, Canis lupus familiaris. The note with it: in vivo.
Data set [11] can be described thus: Half life in rat. The class given is ADME, organism-based. Particulars: in vivo.

Some results are limits rather than exact numbers.

What is called ED50 is the midpoint of the dose-response relation. In general, IC50 refers to the concentration that gives 50% inhibition. The term half-life denotes the time needed for the level to fall by half in the phase considered.

Prostaglandin G/H synthase 1, sequence (P23219 whole entry): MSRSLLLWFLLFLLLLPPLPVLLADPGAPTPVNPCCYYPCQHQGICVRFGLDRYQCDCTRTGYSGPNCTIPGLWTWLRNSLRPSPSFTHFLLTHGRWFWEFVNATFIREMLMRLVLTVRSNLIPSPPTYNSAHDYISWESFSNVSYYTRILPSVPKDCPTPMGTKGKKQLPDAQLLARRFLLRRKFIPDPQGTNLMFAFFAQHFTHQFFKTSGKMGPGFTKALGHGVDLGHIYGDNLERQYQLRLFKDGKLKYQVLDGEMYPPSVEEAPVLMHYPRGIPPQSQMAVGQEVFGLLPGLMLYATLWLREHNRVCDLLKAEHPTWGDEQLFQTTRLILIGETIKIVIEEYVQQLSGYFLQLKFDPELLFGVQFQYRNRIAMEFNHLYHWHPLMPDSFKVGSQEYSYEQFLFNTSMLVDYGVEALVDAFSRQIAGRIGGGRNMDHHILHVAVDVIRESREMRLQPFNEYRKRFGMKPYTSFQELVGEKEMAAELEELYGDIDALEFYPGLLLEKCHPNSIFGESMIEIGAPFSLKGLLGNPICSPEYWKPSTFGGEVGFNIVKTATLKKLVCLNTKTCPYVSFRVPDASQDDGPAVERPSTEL

As to `O=C(O)C1=Cc2cc(Cl)cc(Cl)c2O[C@@H]1C(F)(F)F`, the ED50 in the data set filed under Rattus norvegicus [1] was 0.03 mg/kg; in the data set on Rattus norvegicus [2] it was 0.54 mg/kg; in the data set listed under Rattus norvegicus [3], 2.6 mg/kg; in the data set listed under Rattus norvegicus [4], 0.54 mg/kg. Moreover, the t1/2 was 14.2 h in the data set on Cynomolgus monkey and 360 h in the data set listed under Homo sapiens. The Stability in the data set with Liver microsomes was found to be 100%.
In [5], `CC(C)COc1c(Cl)cc2c(c1Cl)O[C@@H](C(F)(F)F)C(C(=O)O)=C2` yielded an IC50 of under 28 nM.
On to `CC(C)(C)c1cc2c(cc1Cl)C=C(C(=O)O)C(C(F)(F)F)O2` (configuration not stated), for which the inhibition in vivo at 10 mg/kg in the data set listed under Rattus norvegicus [6] came out at 100%. Moreover, in the data set with Liver microsomes, the Stability amounted to 51%.
On to `CCCc1cc2c(cc1Cl)C=C(C(=O)O)C(C(F)(F)F)O2` (configuration not stated), for which the inhibition in vivo at 10 mg/kg in the data set filed under Rattus norvegicus [6] came out at 49%.
Same read-out and setting: the result for `CC(C)CCc1cc2c(cc1Cl)C=C(C(=O)O)C(C(F)(F)F)O2` (configuration not stated) reads 51%; that for `CC(C)CSc1cc2c(cc1Cl)C=C(C(=O)O)C(C(F)(F)F)O2` (configuration not stated), 30%.
On the same count and under the same terms, in the case of `CC(C)CN(C)c1cc2c(cc1Cl)C=C(C(=O)O)C(C(F)(F)F)O2` (configuration not stated) it was 52%; in that of `CCC(CC)COc1cc2c(cc1Cl)C=C(C(=O)O)C(C(F)(F)F)O2` (configuration not stated), 42%.
Turning to `Nc1c(Cl)ccc2c1C=C(C(=O)O)C(C(F)(F)F)O2` (configuration not stated), the IC50 in data set [7] was over 100000 nM.
As for `CCOc1c(Cl)ccc2c1C=C(C(=O)O)C(C(F)(F)F)O2` (configuration not stated), the IC50 in data set [5] and in [7] was over 100000 nM each time.
With `O=C(O)C1=Cc2cc(Cl)c(OCC3CCCC3)c(Cl)c2OC1C(F)(F)F` (configuration not stated), the values for the IC50 in data set [5] and in data set [7] were under 6 nM and under 140 nM, respectively.
In data set [5], `CCC(CC)COc1c(Cl)cc2c(c1Cl)OC(C(F)(F)F)C(C(=O)O)=C2` (configuration not stated) gave an IC50 of under 21 nM.
On to `CC(C)(C)Oc1c(Cl)cc2c(c1Cl)OC(C(F)(F)F)C(C(=O)O)=C2` (configuration not stated), for which the half-inhibitory concentration (IC50) in data set [5] was under 28 nM; in data set [7], under 140 nM.
In [5], `O=C(O)C1=Cc2cc(Cl)c(OCC3CCCCC3)c(Cl)c2OC1C(F)(F)F` (configuration not stated) had an IC50 of under 34 nM.
As for `CC(C)(C)c1cc2c(cc1Cl)C=C(C(=O)O)[C@@H](C(F)(F)F)O2` [TIGEMOCOXIB], the ED50 in the data set listed under Rattus norvegicus [1] was found to be 0.08 mg/kg; in the data set with Rattus norvegicus [2], 2.7 mg/kg; in the data set filed under Rattus norvegicus [3], 4 mg/kg; in the data set filed under Rattus norvegicus [4] it was 0.43 mg/kg. For the same compound, the inhibition in vivo at 2 mg/kg in the data set filed under Rattus norvegicus [8] came out at 100%. Also, the half-life in data set [9] is 34 h; in data set [10], 18 h; in data set [11] it was 4 h.

These data come from ChEMBL document CHEMBL1629461, “The novel benzopyran class of selective cyclooxygenase-2 inhibitors. Part 2: the second clinical candidate having a shorter and favorable human half-life” (Bioorg Med Chem Lett, 2010).
